According to patent US20260109708A1, “COMPOUNDS AND COMPOSITIONS USEFUL AS DEGRADERS OF MK2 KINASE” (Celgene Corporation, priority 2023, published 2026):

Target: T1, p38a activated, mitogen-activated protein kinase-activated protein kinase 2 (MAPKAP-K2 or MK2) enzyme (Homo sapiens, UniProt P49137)
T1 construct: purchased Invitrogen PV3317
Test: MK2 OMNIA biochemical assay (AssayQuant continuous-read kinase assay)
Conditions: [MK-2]=0.05 nM, [ATP]=100 μM, [AQT0425]=10 μM
Procedure, shortened: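 Continuous fluorescence read (ex 360/em 485) of p38a-activated MK2 phosphorylating Sox-conjugated peptide AQT0425 in 50 mM HEPES pH 7.5, 10 mM MgCl2, 1 mM DTT; reads every 71 s for 240 min at room temperature. IC50 from initial linear slopes; apparent Kinact from single-exponential Vobs fits.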

T1 sequence (P49137 whole entry): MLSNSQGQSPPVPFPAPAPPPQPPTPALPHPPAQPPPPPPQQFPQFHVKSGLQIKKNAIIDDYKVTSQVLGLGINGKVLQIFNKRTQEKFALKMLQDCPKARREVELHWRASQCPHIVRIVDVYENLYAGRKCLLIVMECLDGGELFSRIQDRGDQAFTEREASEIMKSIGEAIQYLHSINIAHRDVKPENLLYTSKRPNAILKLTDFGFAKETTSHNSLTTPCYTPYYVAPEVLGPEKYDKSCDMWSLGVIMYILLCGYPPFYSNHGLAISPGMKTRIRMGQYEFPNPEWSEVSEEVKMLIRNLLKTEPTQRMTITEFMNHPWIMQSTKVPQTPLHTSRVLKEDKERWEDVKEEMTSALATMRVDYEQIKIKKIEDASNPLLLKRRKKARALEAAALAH

| IC50 | Structure (SMILES) |
| --- | --- |
| < 150 nM | C[C@@H]1CNc2c(sc3ccc4nc(-c5cccc(N6CCN(C(=O)C(=O)N7CCN(c8ccc9c(C%10CCC(=O)NC%10=O)nn(C)c9c8)CC7)CC6)c5)ccc4c23)C(=O)N1 (stereo partly drawn) [Ex 14, 3-(1-Methyl-6-(4-(2-(4-(3-((R)-10-methyl-8-oxo-9,10,11,12-tetrahydro-8H-[1,4]diazepino[5′,6′:4,5]thieno[3,2-f]quinolin-3-yl)phenyl)piperazin-1-yl)-2-oxoacetyl)piperazin-1-yl)-1H-indazol-3-yl)piperidine-2,6-dione] |
| < 150 nM | C[C@@H]1CNc2c(sc3ccc4nc(-c5ccc(C(=O)N[C@H]6C[C@H](CCN7CCN(c8ccc9c(C%10CCC(=O)NC%10=O)nn(C)c9c8)CC7)C6)cc5F)ccc4c23)C(=O)N1 (stereo partly drawn) [Ex 4, N-(trans-3-(2-(4-(3-(2,6-Dioxopiperidin-3-yl)-1-methyl-1H-indazol-6-yl)piperazin-1-yl)ethyl)cyclobutyl)-3-fluoro-4-((R)-10-methyl-8-oxo-9,10,11,12-tetrahydro-8H-[1,4]diazepino[5′,6′:4,5]thieno[3,2-f]quinolin-3-yl)benzamide] |
| 151 to 500 nM | C[C@@H]1CNc2c(sc3ccc4nc(-c5ccc(C6CCN(CCN7CCN(c8ccc(C9CCC(=O)NC9=O)cc8)CC7)CC6)nc5)ccc4c23)C(=O)N1 (stereo partly drawn) [Ex 34, 3-(4-(4-(2-(4-(5-((R)-10-Methyl-8-oxo-9,10,11,12-tetrahydro-8H-[1,4]diazepino[5′,6′:4,5]thieno[3,2-f]quinolin-3-yl)pyridin-2-yl)piperidin-1-yl)ethyl)piperazin-1-yl)phenyl)piperidine-2,6-dione] |
| < 150 nM | C[C@@H]1COc2c(sc3ccc4nc(-c5ccc(N6CCN(CCN7CCN(c8ccc9c(C%10CCC(=O)NC%10=O)nn(C)c9c8)CC7)CC6)cc5)ccc4c23)C(=O)N1 (stereo partly shown) [Ex 26] |
